Measured values published in ChEMBL document CHEMBL1130689, “Cathepsin B-sensitive dipeptide prodrugs. 2. Models of anticancer drugs paclitaxel (Taxol), mitomycin C and doxorubicin” (Bioorg Med Chem Lett, 1998).

Experiments:
[1] = The release rate of the free drug from the substrate in human plasma by human plasma stability assay; Not hydrolyzed; format: ADME, cell-free
Rattus norvegicus = organism: Rattus norvegicus; assay: The release rate of the free drug from the substrate in rat liver lysosomal preparation by rat liver lysosomal assay; format: ADME
[2] = The release rate of the free drug from the substrate in presence of Cathepsin B by Cathepsin B assay; format: ADME
[3] = The release rate of the free drug from the substrate in human plasma by human plasma stability assay; format: ADME, cell-free

T1/2 [1] | T1/2 (Rattus norvegicus) | T1/2 [2] | T1/2 [3] | Structure (SMILES)
– | 24 min | 10 min | 149 h | COC12C(COC(N)=O)C3=C(C(=O)C(C)=C(N)C3=O)N1CC1C2N1C(=O)OCc1ccc(NC(=O)[C@H](CCCCN)NC(=O)[C@H](Cc2ccccc2)NC(=O)OC(C)(C)C)cc1 (some centres not stated)
Not hydrolyzed | 19 min | 540 min | – | CC(=O)O[C@H]1C(=O)[C@@]2(C)C([C@H](OC(=O)c3ccccc3)[C@]3(O)C[C@H](OC(=O)[C@H](OC(=O)OCc4ccc(NC(=O)[C@H](CCCCN)NC(=O)[C@H](Cc5ccccc5)NC(=O)OCc5ccccc5)cc4)[C@@H](NC(=O)c4ccccc4)c4ccccc4)C(C)=C1C3(C)C)[C@]1(OC(C)=O)COC1C[C@@H]2O (some centres not stated)
Not hydrolyzed | 66 min | 40 min | – | CC(=O)O[C@H]1C(=O)[C@@]2(C)C([C@H](OC(=O)c3ccccc3)[C@]3(O)C[C@H](OC(=O)[C@H](O)[C@@H](NC(=O)c4ccccc4)c4ccccc4)C(C)=C1C3(C)C)[C@]1(OC(C)=O)COC1C[C@@H]2OC(=O)OCc1ccc(NC(=O)[C@H](CCCCN)NC(=O)[C@H](Cc2ccccc2)NC(=O)OC(C)(C)C)cc1 (some centres not stated)

Structure (SMILES) | T1/2 [1] | T1/2 (Rattus norvegicus) | T1/2 [2] | T1/2 [3]
COc1cccc2c1C(=O)c1c(O)c3c(c(O)c1C2=O)C[C@@](O)(C(=O)CO)C[C@@H]3OC1CC(NC(=O)OCc2ccc(NC(=O)[C@H](CCCCN)NC(=O)[C@H](Cc3ccccc3)NC(=O)OCc3ccccc3)cc2)C(O)C(C)O1 (some centres not stated) | Not hydrolyzed | 29 min | 8 min | –
